Test results reported in patent US20240245677A1, “SELECTED COMPOUNDS FOR TARGETED DEGRADATION OF BRD9” (C4 THERAPEUTICS, INC., priority 2021, published 2024).
Several values for one entry are separate records, joined by “and”; a condition that tells them apart may be missing. Identical values can stand only once. Like-named read-outs stand apart in the source and are kept apart here.

Key:
G402 tumor xenografts = assay: Antitumor activity in G402 malignant rhabdoid tumor xenograft model; format: in vivo, mouse; conditions: for TGI: day 21
Procedure: To evaluate the efficacy potential of Compound 1 in the malignant rhabdoid tumor setting, BALB/c nude female mice bearing G402 tumor xenografts (WuXi AppTec, Shanghai, China) were treated with a daily regimen of escalating doses of Compound 1 (10 mg/kg, 30 mg/kg, or 50 mg/kg) or vehicle via oral gavage for 21 days (FIG. 3). Compound 1 was tolerated in this study with all mice except two losing no greater than 8% body weight (FIG. 4). […] One mouse in the 50 mg/kg QD group also experienced accumulating body weight loss to end the study at −17.3% but was never taken off study. […] TGI and One-way ANOVA analyses were performed on day 21, the last day all animals were on study.
The G402 tumor cells were maintained in vitro in McCoy's 5a medium supplemented with 10% fetal bovine serum and 1% Penicillin-Streptomycin at 37° C. in an atmosphere of 5% CO2 in air. The tumor cells were routinely subcultured twice weekly. The cells growing in an exponential growth phase were harvested and counted for tumor inoculation.
Each mouse was inoculated subcutaneously at the right flank with G402 cells (10×10^6) in 0.2 mL of PBS supplemented with Matrigel (PBS:Matrigel=1:1) for tumor development. For efficacy part, the treatments were started when the average tumor volume reaches 175 mm^3.

[1] = Pharmacokinetic study in male Sprague Dawley rats; format: in vivo, rat; conditions: for concentration at 0.033 h / concentration at 0.33 h / concentration at 1 h / concentration at 2 h / concentration at 4 h / concentration at 8 h / concentration at 24 h: male, Sprague Dawley, rat, plasma
Procedure: The pharmacokinetic (PK) profile in plasma of Compound 1 was determined in male Sprague Dawley rats following single dose intravenous (IV) (2 mg/kg) and per os (PO) (10 mg/kg) administration. This study was performed under non-GLP conditions, and unless otherwise stated, all analytical reagents were at least standard laboratory reagent grade, and deionized water was prepared at the study site.
The characteristics of Compound 1 used in this study were as follows: molecular weight of base, 710.78; molecular weight of Compound 1 with salt, 824.81; purity on as is basis, 99.28%.
All animals were housed in cages with clean bedding and maintained and monitored for good health and at the discretion of the laboratory animal veterinarian. Certified rodent diet was provided, and water was available ad libitum. Environmental controls for the animal room were set to maintain a temperature of 22 to 25° C., humidity of 40-70% relative humidity, and a 12-hour light/12-hour dark cycle.
Normal healthy animals certified by the attending veterinarian were selected and acclimatized for a minimum of three days prior to initiation of the study. Animals were identified by body markings.
The rats were anaesthetized with a single dose of ketamine 50 mg/kg i.p. plus xylazine 6 mg/kg i.p. The right jugular was exposed, and a loose ligature was placed caudally, and the cranial end of the vein was ligated. A small incision was made between the ligatures into which a catheter (polyethylene 50 tubing with an internal diameter of 0.58 mm and outer diameter of 0.96 mm) was inserted. The catheter was secured in place by tying the loose ligature around the catheterized vessel. A small incision was made in the scapular region to serve as the exit site of the catheter. The catheter was subcutaneously tunneled and exteriorized through the scapular incision. A stay suture was placed in the scapular area. Patency was tested, and the catheter was filled with a locking solution (heparinized saline) and sealed with a stainless-steel plug. The incision was then sutured with sterile suturing material. Anti-septic solution was applied to the sutured site and the animal was placed back in its home cage. The animals were closely observed throughout the recovery period of 24 hours. The rats were freely moving in the cage (one rat per cage).
Test animals were weighed prior to drug administration, and the standard weight of the animals used was 190 grams. The animals were divided into two groups, IV group and PO group, with each group containing 3 test animals each and 2 spare animals. The IV dose was administered by intravenous injection into the tail vein and PO dose was administered via oral gavage needle. The dosing volume was 5 mL/kg body weight for both groups. The dosing concentration was 0.4 mg/mL for the IV group and 2 mg/mL for the PO group. The animals were in fasted state during the study.
For both dosing groups, blood was collected from the jugular vein (serial sampling) for plasma isolation at 0.033, 0.33, 1, 2, 4, 6, 8, and 24 hour timepoints. The anti-coagulant solution used was 6% (v/v) sodium citrate (200 mM, pH 4.79).
For sample collection, the animals were held to remove the first two drops of blood from the cannula to ensure removal of any excess heparinized saline before collection of blood. The external catheter was connected to a syringe and 0.20-0.30 mL of blood was collected in the syringe and transferred to a pre-labeled, pre-chilled tube. Blood volume was replaced by administering to the animal an equal volume of saline through the jugular vein. After blood collection from each animal, the sample from that animal was recorded in the sample collection sheet.
After collection of each blood sample, the blood sample was stored on ice prior to centrifugation. Blood samples were centrifuged within 20 minutes of collection to separate plasma. Centrifugation was conducted at 2500×g for 15 minutes at 4° C. […]

With `COc1cc(-c2cn(C)c(=O)c(C)c2C)cc(OC)c1CN1CC[C@H](N2CCN(c3ccc(N[C@H]4CCC(=O)NC4=O)cc3F)CC2)C(F)(F)C1` [Compound 1, (S)-3-((4-(4-((S)-1-(2,6-dimethoxy-4-(1,4,5-trimethyl-6-oxo-1,6-dihydropyridin-3-yl)benzyl)-3,3-difluoropiperidin-4-yl)piperazin-1-yl)-3-fluorophenyl)amino)-piperidine-2,6-dione] the “body weight loss, one mouse” value (G402 tumor xenografts; 10 mg/kg QD group) was “over 15%”, the TGI (G402 tumor xenografts; 30 mg/kg/day oral) was 73% and the “body weight change at end of study, one mouse” value (G402 tumor xenografts; 50 mg/kg QD group) was −17.3%. The TGI (G402 tumor xenografts; 50 mg/kg/day oral) was 78%, the “body weight loss, all mice except two” value (G402 tumor xenografts; 10, 30 or 50 mg/kg daily for 21 days) was ≤ 8% and the “Plasma Concentration, individual rats” value ([1]; 2 mg/kg IV, 0.033 h) was 827.34 ng/mL and 751.46 ng/mL. The “Plasma Concentration, individual rats” value ([1]; 2 mg/kg IV, 0.33 h) was 387.61 ng/mL and 411.63 ng/mL, the “Plasma Concentration, individual rats” value ([1]; 2 mg/kg IV, 1 h) was 253.11 ng/mL and 196.32 ng/mL and the “Plasma Concentration, individual rats” value ([1]; 2 mg/kg IV, 2 h) was 175.63 ng/mL and 182.50 ng/mL. For the same compound, the “Plasma Concentration, individual rats” value ([1]; 2 mg/kg IV, 4 h) was 82.15 ng/mL and 113.01 ng/mL, the “Plasma Concentration, individual rats” value ([1]; 2 mg/kg IV, 8 h) was 66.27 ng/mL and 68.01 ng/mL and the “Plasma Concentration, individual rats” value ([1]; 2 mg/kg IV, 24 h) was 2.51 ng/mL and 4.24 ng/mL. For the same compound, the “CI” value ([1]; 2 mg/kg IV, Male Sprague Dawley Rats, mean) was 21.64 mL/min/kg, the concentration at 0.033 h ([1]; intravenous, 2 mg/kg, 2 mg/kg IV, 0.033 h, read-out: Plasma Concentration, Average) was 811 ng/mL and the concentration at 0.033 h ([1]; intravenous, 2 mg/kg, 2 mg/kg IV, 0.033 h, read-out: Plasma Concentration, individual rats) was 854 ng/mL. The concentration at 0.33 h ([1]; intravenous, 2 mg/kg, 2 mg/kg IV, 0.33 h, read-out: Plasma Concentration, Average) was 395 ng/mL, the concentration at 0.33 h ([1]; intravenous, 2 mg/kg, 2 mg/kg IV, 0.33 h, read-out: Plasma Concentration, individual rats) was 385 ng/mL and the concentration at 1 h ([1]; intravenous, 2 mg/kg, 2 mg/kg IV, 1 h, read-out: Plasma Concentration, Average) was 202 ng/mL. For the same compound, the concentration at 1 h ([1]; intravenous, 2 mg/kg, 2 mg/kg IV, 1 h, read-out: Plasma Concentration, individual rats) was 158 ng/mL, the concentration at 2 h ([1]; intravenous, 2 mg/kg, 2 mg/kg IV, 2 h, read-out: Plasma Concentration, Average) was 181 ng/mL and the concentration at 2 h ([1]; intravenous, 2 mg/kg, 2 mg/kg IV, 2 h, read-out: Plasma Concentration, individual rats) was 186 ng/mL. For the same compound, the concentration at 4 h ([1]; intravenous, 2 mg/kg, 2 mg/kg IV, 4 h, read-out: Plasma Concentration, Average) was 107 ng/mL, the concentration at 4 h ([1]; intravenous, 2 mg/kg, 2 mg/kg IV, 4 h, read-out: Plasma Concentration, individual rats) was 125 ng/mL and the concentration at 8 h ([1]; intravenous, 2 mg/kg, 2 mg/kg IV, 8 h, read-out: Plasma Concentration, Average) was 61.9 ng/mL. The concentration at 8 h ([1]; intravenous, 2 mg/kg, 2 mg/kg IV, 8 h, read-out: Plasma Concentration, individual rats) was 51.4 ng/mL, the concentration at 24 h ([1]; intravenous, 2 mg/kg, 2 mg/kg IV, 24 h, read-out: Plasma Concentration, Average) was 3.76 ng/mL and the concentration at 24 h ([1]; intravenous, 2 mg/kg, 2 mg/kg IV, 24 h, read-out: Plasma Concentration, individual rats) was 4.54 ng/mL. It also gave a concentration at 0.033 h ([1]; oral, 10 mg/kg, 10 mg/kg PO, Male Sprague Dawley Rats, 0.033 h, Rat-1, read-out: Plasma Concentration (ng/mL) Rat-1) of 2.98 ng/mL, a concentration at 0.033 h ([1]; oral, 10 mg/kg, 10 mg/kg PO, Male Sprague Dawley Rats, 0.033 h, Rat-2, read-out: Plasma Concentration (ng/mL) Rat-2) of 16.4 ng/mL and a concentration at 0.033 h ([1]; oral, 10 mg/kg, 10 mg/kg PO, Male Sprague Dawley Rats, 0.033 h, Rat-3, read-out: Plasma Concentration (ng/mL) Rat-3) of 1.81 ng/mL. It also gave a concentration at 0.033 h ([1]; oral, 10 mg/kg, 10 mg/kg PO, Male Sprague Dawley Rats, 0.033 h, average, read-out: Plasma Concentration Average) of 7.06 ng/mL, a concentration at 0.33 h ([1]; oral, 10 mg/kg, 10 mg/kg PO, Male Sprague Dawley Rats, 0.33 h, Rat-1, read-out: Plasma Concentration (ng/mL) Rat-1) of 215 ng/mL and a concentration at 0.33 h ([1]; oral, 10 mg/kg, 10 mg/kg PO, Male Sprague Dawley Rats, 0.33 h, Rat-2, read-out: Plasma Concentration (ng/mL) Rat-2) of 177 ng/mL. It also gave a concentration at 0.33 h ([1]; oral, 10 mg/kg, 10 mg/kg PO, Male Sprague Dawley Rats, 0.33 h, Rat-3, read-out: Plasma Concentration (ng/mL) Rat-3) of 350 ng/mL.
